Measurements reported in US20030073132A1, “Method for the screening of alpha2delta-1 subunit binding ligands” (priority 1999, published 2003).
Where “and” joins values, the source holds several entries; their conditions need not be identical. Equal entries are not always repeated. Where two headings read alike, the source gives them in different places.

How the values were obtained:
[1] = target: porcine α2δ-1b-6His (SEQ ID No 9) (Sus scrofa, UniProt A0A287BIN3); conditions: [3H]gabapentin 10-13 nM
porcine α2δ-1b-6His (SEQ ID No 9), sequence (A0A287BIN3 25-1109 limits assumed): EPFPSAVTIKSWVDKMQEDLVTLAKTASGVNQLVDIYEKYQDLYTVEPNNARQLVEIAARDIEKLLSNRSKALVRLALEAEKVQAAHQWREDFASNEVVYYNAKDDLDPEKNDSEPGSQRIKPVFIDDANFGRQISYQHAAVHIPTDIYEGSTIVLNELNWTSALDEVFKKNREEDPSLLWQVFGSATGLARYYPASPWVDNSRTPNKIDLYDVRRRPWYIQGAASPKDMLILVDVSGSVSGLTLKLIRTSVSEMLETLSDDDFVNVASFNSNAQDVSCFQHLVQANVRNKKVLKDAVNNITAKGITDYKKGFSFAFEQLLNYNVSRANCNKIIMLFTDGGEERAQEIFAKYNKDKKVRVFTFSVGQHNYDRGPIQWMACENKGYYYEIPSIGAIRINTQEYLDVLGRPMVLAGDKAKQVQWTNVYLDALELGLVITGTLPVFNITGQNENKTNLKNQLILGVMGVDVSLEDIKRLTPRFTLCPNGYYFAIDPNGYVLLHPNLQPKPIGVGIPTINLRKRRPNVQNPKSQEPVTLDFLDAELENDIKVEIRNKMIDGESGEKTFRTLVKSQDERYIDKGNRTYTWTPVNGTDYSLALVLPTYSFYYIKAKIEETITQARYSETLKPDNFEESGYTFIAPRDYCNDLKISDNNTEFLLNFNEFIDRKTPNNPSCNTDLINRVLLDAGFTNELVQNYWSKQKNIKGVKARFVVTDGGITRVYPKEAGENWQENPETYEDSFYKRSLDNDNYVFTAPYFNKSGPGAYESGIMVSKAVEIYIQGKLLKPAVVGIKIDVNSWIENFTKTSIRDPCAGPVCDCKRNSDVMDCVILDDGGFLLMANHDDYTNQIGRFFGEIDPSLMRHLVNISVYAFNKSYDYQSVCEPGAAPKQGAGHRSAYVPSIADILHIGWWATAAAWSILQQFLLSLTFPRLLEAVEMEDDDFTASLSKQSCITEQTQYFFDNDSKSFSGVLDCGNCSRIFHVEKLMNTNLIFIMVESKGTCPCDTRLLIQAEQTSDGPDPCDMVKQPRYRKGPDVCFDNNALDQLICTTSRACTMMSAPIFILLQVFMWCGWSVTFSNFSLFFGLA
Method: Assays were carried out at 21° C. in a final volume of 250 μl in 96-well NEN Ni chelate flash plates. Wells were set up for both ‘total’ and ‘non-specific’ binding. Specific binding was defined as that remaining after subtraction of the average of the ‘non-specific binding’ values from the average of the ‘total’ binding values. Assay components were added in the following order (all reagents were diluted in 10 mM HEPES (pH 7.4 at 21° C.)):
Immediately after adding radioligand, flash plates were loaded in the Packard Top Count scintillation counter to follow the binding time course. Incubation time before the assay was 3 hours. The ‘[^3H] flash plate’ programme (cpm) was used to monitor activity. Specific binding was ˜98% of the ‘total’ value. Imidazole was used in the assay to optimize the specific interaction of the protein's 6His tag with the Ni flashplate.
GraphPad Prism software was used to process competition curve data and determine IC50 and hill slope values. Twelve point competition curves with half log dilution steps of test compounds were used in the experiments.

[2] = target: [^3H]gabapentin site in porcine cortical membranes (Sus scrofa, UniProt O77773); conditions: saturation binding analyses on porcine synaptic plasma cerebral cortex membranes in the presence of L-leucine; cited from earlier work
[^3H]gabapentin site in porcine cortical membranes, sequence (O77773 25-1091): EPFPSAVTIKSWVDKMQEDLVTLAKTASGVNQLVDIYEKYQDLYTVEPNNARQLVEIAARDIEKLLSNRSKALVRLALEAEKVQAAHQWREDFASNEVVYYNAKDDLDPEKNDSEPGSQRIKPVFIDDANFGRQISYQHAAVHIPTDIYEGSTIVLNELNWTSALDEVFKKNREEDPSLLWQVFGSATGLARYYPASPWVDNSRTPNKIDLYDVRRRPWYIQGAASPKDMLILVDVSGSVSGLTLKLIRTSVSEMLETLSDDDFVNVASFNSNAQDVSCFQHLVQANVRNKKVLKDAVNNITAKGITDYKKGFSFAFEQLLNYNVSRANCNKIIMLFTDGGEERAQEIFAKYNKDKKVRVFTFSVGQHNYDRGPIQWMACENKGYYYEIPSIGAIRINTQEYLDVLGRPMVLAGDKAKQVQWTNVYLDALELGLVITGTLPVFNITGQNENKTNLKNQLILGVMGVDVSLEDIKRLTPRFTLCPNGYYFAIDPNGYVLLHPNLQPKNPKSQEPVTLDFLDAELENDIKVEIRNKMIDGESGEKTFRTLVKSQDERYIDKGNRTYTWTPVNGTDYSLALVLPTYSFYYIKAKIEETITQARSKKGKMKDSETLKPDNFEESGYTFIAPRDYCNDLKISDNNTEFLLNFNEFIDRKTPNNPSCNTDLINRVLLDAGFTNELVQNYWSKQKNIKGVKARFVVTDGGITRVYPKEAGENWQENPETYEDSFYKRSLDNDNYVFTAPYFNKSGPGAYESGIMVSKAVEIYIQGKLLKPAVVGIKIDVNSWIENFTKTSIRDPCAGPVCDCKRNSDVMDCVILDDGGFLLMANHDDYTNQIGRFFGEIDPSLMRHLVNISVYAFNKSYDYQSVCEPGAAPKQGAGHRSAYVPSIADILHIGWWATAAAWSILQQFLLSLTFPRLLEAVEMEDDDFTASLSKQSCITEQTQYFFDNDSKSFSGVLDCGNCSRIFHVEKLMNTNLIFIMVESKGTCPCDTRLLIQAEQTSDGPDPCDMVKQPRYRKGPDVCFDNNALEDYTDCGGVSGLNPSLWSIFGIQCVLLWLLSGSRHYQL

[3] = read-out: Ki, Flash plate (3 μl protein used, n = 2), single experiments, Ki = IC50/(1 + [L]/KD), 3 h incubation
[4] = read-out: Ki, Flash plate, Mean (geometric), geometric mean of n = 2

Row | SMILES | Ki [1, 3] | Ki [1, 4] [nM] | interaction with the [3H]gabapentin binding site [2]
1 | CC(C)C[C@@H](CN)CC(=O)O [(R-)-3-isobtyl GABA, (R−)-3-Isobutyl GABA] | 157 nM and 207 nM | 180 | –
2 | CC(C)C[C@H](CN)CC(=O)O [(S+)-3-isobutyl GABA] | 10.9 nM and 7.58 nM | 9.09 | –
3 | CC(C)C[C@H](N)C(=O)O [L-Leucine] | – | – | competitive interaction
